# BigSolDB 2.1
smiles,measurement,setting,value
Cc1c(Cl)cccc1Nc1ccccc1C(=O)O,solubility (mole fraction),"in 1,4-dioxane, 288.15 K",0.0289
same,solubility (mole fraction),"in 1,4-dioxane, 293.15 K",0.032
same,solubility (mole fraction),"in 1,4-dioxane, 298.15 K",0.0356
same,solubility (mole fraction),"in 1,4-dioxane, 303.15 K",0.0399
same,solubility (mole fraction),"in 1,4-dioxane, 308.15 K",0.0444
same,solubility (mole fraction),"in 1,4-dioxane, 313.15 K",0.0492
same,solubility (mole fraction),"in 1,4-dioxane, 318.15 K",0.0548
same,solubility (mole fraction),"in 1,4-dioxane, 323.15 K",0.0599
same,solubility (mole fraction),"in 1,4-dioxane, 328.15 K",0.0654
same,solubility (mole fraction),"in DMF, 283.15 K",0.00652
same,solubility (mole fraction),"in DMF, 288.15 K",0.00892
same,solubility (mole fraction),"in DMF, 293.15 K",0.0117
same,solubility (mole fraction),"in DMF, 298.15 K",0.0152
same,solubility (mole fraction),"in DMF, 303.15 K",0.019
same,solubility (mole fraction),"in DMF, 308.15 K",0.0241
same,solubility (mole fraction),"in DMF, 313.15 K",0.0303
same,solubility (mole fraction),"in DMF, 318.15 K",0.0374
same,solubility (mole fraction),"in DMF, 323.15 K",0.0454
same,solubility (mole fraction),"in DMF, 328.15 K",0.055
same,solubility (mole fraction),"in DMSO, 293.15 K",0.0144
same,solubility (mole fraction),"in DMSO, 298.15 K",0.0186
same,solubility (mole fraction),"in DMSO, 303.15 K",0.0229
same,solubility (mole fraction),"in DMSO, 308.15 K",0.0288
same,solubility (mole fraction),"in DMSO, 313.15 K",0.0351
same,solubility (mole fraction),"in DMSO, 318.15 K",0.042
same,solubility (mole fraction),"in DMSO, 323.15 K",0.0495
same,solubility (mole fraction),"in DMSO, 328.15 K",0.0571
same,solubility (mole fraction),"in acetonitrile, 283.15 K",0.000228
same,solubility (mole fraction),"in acetonitrile, 288.15 K",0.000339
same,solubility (mole fraction),"in acetonitrile, 293.15 K",0.000463
same,solubility (mole fraction),"in acetonitrile, 298.15 K",0.000618
same,solubility (mole fraction),"in acetonitrile, 303.15 K",0.000808
same,solubility (mole fraction),"in acetonitrile, 308.15 K",0.00107
same,solubility (mole fraction),"in acetonitrile, 313.15 K",0.00137
same,solubility (mole fraction),"in acetonitrile, 318.15 K",0.00177
same,solubility (mole fraction),"in acetonitrile, 323.15 K",0.00221
same,solubility (mole fraction),"in acetonitrile, 328.15 K",0.00282
same,solubility (mole fraction),"in cyclohexane, 283.15 K",2.97e-05
same,solubility (mole fraction),"in cyclohexane, 288.15 K",4.31e-05
same,solubility (mole fraction),"in cyclohexane, 293.15 K",5.94e-05
same,solubility (mole fraction),"in cyclohexane, 298.15 K",8.23e-05
same,solubility (mole fraction),"in cyclohexane, 303.15 K",0.000116
same,solubility (mole fraction),"in cyclohexane, 308.15 K",0.000159
same,solubility (mole fraction),"in cyclohexane, 313.15 K",0.000216
same,solubility (mole fraction),"in cyclohexane, 318.15 K",0.000292
same,solubility (mole fraction),"in cyclohexane, 323.15 K",0.000391
same,solubility (mole fraction),"in cyclohexane, 328.15 K",0.000515
same,solubility (mole fraction),"in ethyl acetate, 283.15 K",0.00603
same,solubility (mole fraction),"in ethyl acetate, 288.15 K",0.00799
same,solubility (mole fraction),"in ethyl acetate, 293.15 K",0.0102
same,solubility (mole fraction),"in ethyl acetate, 298.15 K",0.0127
same,solubility (mole fraction),"in ethyl acetate, 303.15 K",0.0162
same,solubility (mole fraction),"in ethyl acetate, 308.15 K",0.0201
same,solubility (mole fraction),"in ethyl acetate, 313.15 K",0.0252
same,solubility (mole fraction),"in ethyl acetate, 318.15 K",0.0314
same,solubility (mole fraction),"in ethyl acetate, 323.15 K",0.0383
same,solubility (mole fraction),"in ethyl acetate, 328.15 K",0.0458
same,solubility (mole fraction),"in ethyl formate, 283.15 K",0.00169
same,solubility (mole fraction),"in ethyl formate, 288.15 K",0.00239
same,solubility (mole fraction),"in ethyl formate, 293.15 K",0.00311
same,solubility (mole fraction),"in ethyl formate, 298.15 K",0.00405
same,solubility (mole fraction),"in ethyl formate, 303.15 K",0.00506
same,solubility (mole fraction),"in ethyl formate, 308.15 K",0.0066
same,solubility (mole fraction),"in ethyl formate, 313.15 K",0.00833
same,solubility (mole fraction),"in ethyl formate, 318.15 K",0.01
same,solubility (mole fraction),"in ethyl formate, 323.15 K",0.0131
same,solubility (mole fraction),"in ethyl formate, 328.15 K",0.0159
same,solubility (mole fraction),"in ethylene glycol, 283.15 K",8.74e-05
same,solubility (mole fraction),"in ethylene glycol, 288.15 K",0.000132
same,solubility (mole fraction),"in ethylene glycol, 293.15 K",0.000177
same,solubility (mole fraction),"in ethylene glycol, 298.15 K",0.000233
same,solubility (mole fraction),"in ethylene glycol, 303.15 K",0.000311
same,solubility (mole fraction),"in ethylene glycol, 308.15 K",0.000406
same,solubility (mole fraction),"in ethylene glycol, 313.15 K",0.000546
same,solubility (mole fraction),"in ethylene glycol, 318.15 K",0.000717
same,solubility (mole fraction),"in ethylene glycol, 323.15 K",0.000931
same,solubility (mole fraction),"in ethylene glycol, 328.15 K",0.00122
same,solubility (mole fraction),"in n-heptanol, 283.15 K",0.00557
same,solubility (mole fraction),"in n-heptanol, 288.15 K",0.00726
same,solubility (mole fraction),"in n-heptanol, 293.15 K",0.00924
same,solubility (mole fraction),"in n-heptanol, 298.15 K",0.0114
same,solubility (mole fraction),"in n-heptanol, 303.15 K",0.0142
same,solubility (mole fraction),"in n-heptanol, 308.15 K",0.0171
same,solubility (mole fraction),"in n-heptanol, 313.15 K",0.0214
same,solubility (mole fraction),"in n-heptanol, 318.15 K",0.0257
same,solubility (mole fraction),"in n-heptanol, 323.15 K",0.0306
same,solubility (mole fraction),"in n-heptanol, 328.15 K",0.0366
same,solubility (mole fraction),"in n-hexanol, 283.15 K",0.00435
same,solubility (mole fraction),"in n-hexanol, 288.15 K",0.00581
same,solubility (mole fraction),"in n-hexanol, 293.15 K",0.00758
same,solubility (mole fraction),"in n-hexanol, 298.15 K",0.0094
same,solubility (mole fraction),"in n-hexanol, 303.15 K",0.0118
same,solubility (mole fraction),"in n-hexanol, 308.15 K",0.0144
same,solubility (mole fraction),"in n-hexanol, 313.15 K",0.0176
same,solubility (mole fraction),"in n-hexanol, 318.15 K",0.021
same,solubility (mole fraction),"in n-hexanol, 323.15 K",0.0251
same,solubility (mole fraction),"in n-hexanol, 328.15 K",0.0295
same,solubility (mole fraction),"in n-pentanol, 283.15 K",0.00335
same,solubility (mole fraction),"in n-pentanol, 288.15 K",0.00432
same,solubility (mole fraction),"in n-pentanol, 293.15 K",0.00575
same,solubility (mole fraction),"in n-pentanol, 298.15 K",0.00741
same,solubility (mole fraction),"in n-pentanol, 303.15 K",0.00916
same,solubility (mole fraction),"in n-pentanol, 308.15 K",0.0112
same,solubility (mole fraction),"in n-pentanol, 313.15 K",0.0138
same,solubility (mole fraction),"in n-pentanol, 318.15 K",0.0169
same,solubility (mole fraction),"in n-pentanol, 323.15 K",0.0206
same,solubility (mole fraction),"in n-pentanol, 328.15 K",0.0243
same,solubility (mole fraction),"in n-pentyl acetate, 283.15 K",0.00558
same,solubility (mole fraction),"in n-pentyl acetate, 288.15 K",0.00726
same,solubility (mole fraction),"in n-pentyl acetate, 293.15 K",0.00931
same,solubility (mole fraction),"in n-pentyl acetate, 298.15 K",0.0116
same,solubility (mole fraction),"in n-pentyl acetate, 303.15 K",0.0146
same,solubility (mole fraction),"in n-pentyl acetate, 308.15 K",0.0179
same,solubility (mole fraction),"in n-pentyl acetate, 313.15 K",0.0218
same,solubility (mole fraction),"in n-pentyl acetate, 318.15 K",0.0261
same,solubility (mole fraction),"in n-pentyl acetate, 323.15 K",0.031
same,solubility (mole fraction),"in n-pentyl acetate, 328.15 K",0.0371
